This is an account of results in patent publication US20220323443A1, “COMBINATION THERAPY FOR CANCER TREATMENT” (TAKEDA PHARMACEUTICAL COMPANY LIMITED, priority 2019, published 2022).

Assay [1] concerns H22 (Hepatoma). Put plainly: In vivo combination study, syngeneic mouse tumor isograft model. The note with it: note to Table 9; by note order: Anti-mCTLA-4 study in H22 (55 mm^3). The procedure: (§1) To investigate in vivo antitumor activity of Compound 1 in combination with other agents, tests using Cell Derived Xenograft (CDX), Patient Derived Xenograft (PDX) and Syngeneic mouse tumor isograft model were conducted. Cells or Patient Derived Tumors were inoculated by one method of the following two methods (Method A and B) as shown Table 7.
(§2) Method A; Cells were maintained in either immune deficient nude mice or immune competent mice by subcutaneous inoculation of tumor cells at various concentrations into respected mice. Method B: Patient Derived Tumor s were maintained in nude mice by subcutaneous inoculation of tumor pieces (approx. 2×2×2 mm) into nude mice. Mice with tumor size of approximately 50 mm^3 (e.g., 40-75 mm^3) for syngeneic mouse studies or 200 mm^3 (e.g., 110-270 mm^3) for xenograft studies were randomly assigned to dose groups on the day (Day 0) before start date of dosing.
(§3) Compound 1 (crystalline form I) was suspended in 0.5 w/v % methylcellulose and administered orally to mice. Antibodies which administered in the experiment were described in Table 8.
(§4) Tumor size was measured by caliper and tumor volume was estimated using the equation V=(LW^2)/2, where L and W are tumor length and width, respectively and reported in cubic millimeters.
(§5) These values were compared across treatment groups to assess whether the differences in the trends over time were statistically significant. To compare pairs of treatment groups, the following mixed-effects linear regression model was fit to the data using the maximum likelihood method:
(§6) For synergy analyses, the observed differences in the log tumor values were used to calculate AUC values for each animal. In instances when an animal in a treatment group was removed from the study, the last observed tumor value was carried forward through all subsequent time points. The AUC for the control, or vehicle, group was calculated using the predicted values from the pairwise models described above. We defined a measure of synergy as follows:
(§7) where Ak and Bk are the k^th animal in the individual treatment groups and ABk is the k^th animal in combination treatment group. AUCcd is the model-predicted AUC for the control group and was treated as a constant with no variability. The standard error of the synergy score was calculated as the square root of the sum of squared standard errors across groups A, B, and AB. The degrees of freedom were estimated using the Welch-Satterthwaite equation. A hypothesis test was performed to determine if the synergy score differed from 0. P values were calculated by dividing the synergy score by its standard error and tested against a t-distribution (two-tailed) with the above-calculated degrees of freedom.
(§8) The effect was classified into four different categories. It was considered synergistic if the synergy score was less than 0 and additive if the synergy score wasn't statistically different from 0. If the synergy score was greater than zero, but the mean AUC for the combination was lower than the lowest mean AUC among the two single agent treatments, then the combination was sub-additive. If the synergy score was greater than zero, and the mean AUC for the combination was greater than the mean AUC for at least one of the single agent treatments, then the combination was antagonistic.

The test system of assay [2] is J558 mouse plasmacytoma tumors. The assay is described as above. As to conditions: note to Table 9. As for the experimental part:
as §1, §2, §3, §4, §5, §6, §7, §8

In assay [3] the test system is JC (Breast). The description is as above. The note with it: note to Table 9. As for the experimental part: as §1, §2, §3, §4, §5, §6, §7, §8
In assay [4] the test system is Panc02 (Pancreatic). The assay is described as above. As to conditions: note to Table 9. As for the experimental part: as §1, §2, §3, §4, §5, §6, §7, §8
In assay [5] the test system is CT26 Mouse syngeneic colon tumor model. Described as above. The note with it: note to Table 9.
Assay [6] concerns B16F10 (Melanoma). The assay is described as above. The note with it: note to Table 9.
Assay [7] deals with A20 (Lymphoma). Described as above. As to conditions: note to Table 9.
The subject of assay [8] is RNASEH2A knockout (KO) TK-6 cells and parental TK-6 cells. Put plainly: In vitro growth inhibition assay, Cell Titer-Glo, 72 hours. The format is cell-based. As to conditions: FIG. 9. As for the experimental part: To determine further whether RNASEH2A is involved in the sensitization to compound 1, in vitro growth inhibition assay of compound 1 was carried out in RNASEH2A knockout (KO) TK-6 cells and its counterpart parental TK-6 cells. RNASEH2A KO TK-6 cells and its counterpart parental TK-6 cells were obtained from Kyoto University under a material transfer agreement. The cell lines were cultured in RPMI-1640 medium (FUJIFILM Wako Pure Chemical Corporation, Osaka, JAPAN) supplied with 10% Fetal Bovine Serum (CORNING Inc., NY, USA), sodium pyruvate (FUJIFILM Wako Pure Chemical Corporation, Osaka, JAPAN), and Penicillin-Streptomycin (FUJIFILM Wako Pure Chemical Corporation, Osaka, JAPAN). Stock solutions of compound 1 were prepared in dimethyl sulfoxide (DMSO), and stored at approximately −20 deg C.
Cell proliferation was measured by using Cell Titer-Glo Luminescent Cell Viability Assay (Promega, WI, USA.). The CellTiter-Glo Luminescent Cell Viability Assay is a homogeneous method of determining the number of viable cells in culture based on quantitation of the ATP present, which signals the presence of metabolically active cells. […] Luminescence of each well was measured by EnVision™ (PerkinElmer Inc., MA, USA). Taking as 100% the ATP content for the DMSO treatment control group, the ratio of the residual ATP content for each treatment group was determined. […]
On the technique in general: In ATP-based viability assays light output follows the ATP content of the culture.

On to `Cc1[nH]ncc1-c1cc2nc([C@@H]3CC4CCN3CC4)[nH]c(=O)c2s1` [Compound 1, 2-[(2S)-1-azabicyclo[2.2.2]oct-2-yl]-6-(3-methyl-1H-pyrazol-4-yl)thieno[3,2-d]pyrimidin-4(3H)-one], for which the CR per group in assay [1] is 0; in assay [2] (by note order: Anti-mCTLA-4 study in J558 (30 mm^3)) it was 2; in assay [2] (by note order: Anti-mPD-1 study in J558 (30 mm^3)), 2; in assay [2] (by note order: Anti-mPD-L1 study in J558 (30 mm^3)), 2; in assay [3] (by note order: Anti-mCTLA-4 study in JC (60 mm^3)), 0 CR in CTLA-4 group and 0 CR in Compound 1 group, and 0 CR in Compound 1/CTLA-4 combo group; in assay [3] (by note order: Anti-mPD-1 study in JC (60 mm^3)), 0 CR in PD-1 group and 0 CR in Compound 1 group, and 0 CR in Compound 1/PD-1 combo group. The CR per group is 0 CR in PD-1 group and 0 CR in Compound 1 group, and 0 CR in Compound 1/PD-1 combo group in assay [4] (by note order: Anti-mPD-1 study in Panc02 (75 mm^3)); 0 CR in Gemcitabine group and 0 CR in Compound 1 group, and 0 CR in Compound 1/Gemcitabine combo group in assay [4] (by note order: Gemcitabine study in Panc02 (75 mm^3)); 0 in assay [5] (by note order: Anti-mCTLA-4 study in CT26 (40 mm^3)); 0 in assay [5] (by note order: Anti-mCTLA-4 study in CT26 (50 mm^3)); 0 in assay [5] (by note order: Anti-mPD-1 study in CT26 (40 mm^3)); 0 in assay [5] (by note order: Anti-mPD-1 study in CT26 (50 mm^3)). Besides, the CR per group result in assay [5] (by note order: Anti-mPD-1 study in CT26 (64 mm^3)) was “no CR”; in assay [5] (by note order: NKTR-214 + anti-mPD-1 study in CT26 (64 mm^3)) it was “no CR”; in assay [5] (by note order: NKTR-214 study in CT26 (64 mm^3)) it was “no CR”; in assay [6] (by note order: Anti-mPD-1 study in B16F10 (67 mm^3)), 0 CR in PD-1 group and 0 CR in Compound 1 group, and 0 CR in Compound 1/PD-1 combo group; in assay [6] (by note order: NKTR-214 + anti-mPD-1 study in B16F10 (67 mm^3)) it was 0 CR in NKTR-214 + PD-1 group, and 0 CR in Compound 1 group, and 0 CR in Compound 1/NKTR-214/PD-1 triple combo group; in assay [6] (by note order: NKTR-214 study in B16F10 (67 mm^3)) it was “no CR”. Further, the CR per group in assay [7] (by note order: Anti-mPD-1 study in A20 (61 mm^3)), in assay [7] (by note order: NKTR-214 + anti-mPD-1 study in A20 (61 mm^3)) and in assay [7] (by note order: NKTR-214 study in A20 (61 mm^3)) was 1 in each case. For the same molecule, the “sensitivity (growth inhibition) of RNASEH2A KO TK-6 cells versus WT TK-6 cells” value in assay [8] is given as “more sensitive”.
